The record followed here is patent publication US10045980B2, “Inhibitor of p38 map kinase” (RESPIVERT LTD, priority 2014, dated 2018).

Assay [1] relates to BEAS2B cells. In words: Poly I:C-induced ICAM-1 expression in BEAS2B cells. Particulars: Homo sapiens, BEAS-2B, 18 h after poly I:C transfection, read-out: PolyIC/ICAM1 IC50 (BEAS2B). It is filed as cell-based. How it is done: Poly I:C was used in these studies as a simple, RNA virus mimic. Poly I:C-Oligofectamine mixture (2% Oligofectamine±1 μg/mL Poly I:C, 25 μL; Life Technologies and Invivogen Ltd., San Diego, Calif., respectively) was transfected into BEAS2B cells (human bronchial epithelial cells, ATCC). Cells were pre-incubated with final concentrations of test compounds for 2 h and the level of ICAM-1 expression on the cell surface was determined by cell-based ELISA. […]
The cells were washed with PBS-Tween (3×200 μL) and incubated with the secondary antibody (100 μL; HRP-conjugated anti-rabbit IgG, Dako Ltd., Glostrup, Denmark). […] The ICAM-1 signal was detected by reading the absorbance at 450 nm against a reference wavelength of 655 nm using a spectrophotometer. The cells were then washed with PBS-Tween (3×200 μL) and total cell numbers in each well were determined by reading absorbance at 595 nm after Crystal Violet staining (50 μL of a 2% solution in PBS) and elution by 1% SDS solution (100 μL) in PBS. The measured OD 450-655 readings were corrected for cell number by dividing with the OD595 reading in each well. The inhibition of ICAM-1 expression was calculated at each concentration of test compound by comparison with vehicle control.

The test system of assay [2] is BEAS2B cells infected with human rhinovirus RV16. The experiment in a line: Rhinovirus-induced IL-8 release. Particulars: FIG. 9. The assay is classed as cell-based. As to the method:
Human rhinovirus RV16 is obtained from the American Type Culture Collection (Manassas, Va.). Viral stocks are generated by infecting MRC5 cells with HRV until 80% of the cells were cytopathic.
BEAS2B cells are infected with HRV at an MOI of 1.2 and incubated for 1 h at 33° C. with gentle shaking for to promote absorption. The cells are then washed with PBS, fresh media added and the cells are incubated for a further 72 h. The supernatant is collected for assay of IL-8 concentrations using a Duoset ELISA development kit (R&D systems, Minneapolis, Minn.). Compounds are added 2 h before HRV infection and 1 h after infection when non-infected HRV is washed out.

For assay [3], the target named is T1, Hck (Homo sapiens, UniProt P08631).
T1 construct: purchased Life Technologies
The experiment in a line: Hck enzyme inhibition (Z-LYTE FRET). It is filed as biochemical. As to the method:
(§1) The enzyme inhibitory activities of the compound disclosed herein were determined by FRET using synthetic peptides labelled with both donor and acceptor fluorophores (Z-LYTE, Life Technologies, Paisley, UK).
(§2) The relevant enzyme (1000 ng/mL, 1400 ng/mL or 2000 ng/mL respectively, 2.5 μL) was incubated with the test compound (either 40 μg/mL, 12 μg/mL, 4 μg/mL, 1.2 μg/mL, 0.4 μg/mL, 0.12 μg/mL, 0.04 μg/mL, 0.012 μg/mL, 0.004 μg/mL or 0.0012 μg/mL, 2.5 μL each) for 2 h at RT. The FRET peptides (8 μM, 2.5 μL), and appropriate ATP solutions (2.5 μL, 800 μM for c-Src, and 60 μM ATP for HCK and Syk) were then added to the enzyme/compound mixtures and incubated for 1 h at RT. Development reagent (protease, 5 μL) was added for 1 h prior to detection in a fluorescence microplate reader (EnVision, Perkin Elmer).
(§3) In all cases, the site-specific protease cleaves non-phosphorylated peptide only and eliminates the FRET signal. Phosphorylation levels of each reaction were calculated using the ratio of coumarin emission (donor) over fluorescein emission (acceptor), for which low ratios indicate high phosphorylation and high ratios indicate low phosphorylation levels.

Assay [4] addresses T2, GSK 3α enzyme isoform (Homo sapiens, UniProt P49840).
T2 construct: purchased Life Technologies
The experiment in a line: GSK 3α enzyme inhibition (Z-LYTE FRET). The assay is classed as biochemical. The following applies: read-out: IC50 Values for Enzyme Inhibition GSK3α. As to the method:
as §1
Development reagent (protease, 5 μL) was added for 1 h prior to detection in a fluorescence microplate reader (EnVision, Perkin Elmer).
as §3

Assay [5] concerns the target T3, c-Src (Homo sapiens, UniProt P12931).
T3 construct: purchased Life Technologies
The experiment in a line: c-Src enzyme inhibition (Z-LYTE FRET). It is filed as biochemical. As to the method:
as §1, §2, §3

The subject of assay [6] is PBMCs. In words: Cell mitosis assay. The assay is classed as cell-based. The following applies: Homo sapiens, PBMC; At 5 ug/mL; PHA-treated PBMCs, 20 h exposure; Mean ± SEM. As to the method: Peripheral blood mononucleocytes (PBMCs) from healthy subjects were separated from whole blood (Quintiles, London, UK) using a density gradient (Histopaque-1077, Sigma-Aldrich, Poole, UK). The PBMCs (3 million cells per sample) were subsequently treated with 2% PHA (Sigma-Aldrich, Poole, UK) for 48 h, followed by a 20 h exposure to varying concentrations of test compounds. At 2 h before collection, PBMCs were treated with demecolcine (0.1 μg/mL; Life Technologies, Paisley, UK,) to arrest cells in metaphase.

Assay [7] deals with T4, p38 MAPKα isoform (MAPK14) (Homo sapiens, UniProt Q16539).
T4 construct: purchased Life Technologies
In words: p38 MAPKα enzyme inhibition (Z-LYTE FRET). It is filed as biochemical. As to the method: as §1
The enzyme (40 ng/mL, 2.5 μL) was incubated with the test compound (2.5 μL of either 40 μg/mL, 12 μg/mL, 4 μg/mL, 1.2 μg/mL, 0.4 μg/mL, 0.12 μg/mL, 0.04 μg/mL, 0.012 μg/mL, 0.004 μg/mL or 0.0012 μg/mL) for 2 h at RT. […] Development reagent (protease, 5 μL) was added for 1 h prior to detection in a fluorescence microplate reader (EnVision, Perkin Elmer, Waltham, Mass., USA).
as §3

T2 sequence (P49840 whole entry, canonical isoform): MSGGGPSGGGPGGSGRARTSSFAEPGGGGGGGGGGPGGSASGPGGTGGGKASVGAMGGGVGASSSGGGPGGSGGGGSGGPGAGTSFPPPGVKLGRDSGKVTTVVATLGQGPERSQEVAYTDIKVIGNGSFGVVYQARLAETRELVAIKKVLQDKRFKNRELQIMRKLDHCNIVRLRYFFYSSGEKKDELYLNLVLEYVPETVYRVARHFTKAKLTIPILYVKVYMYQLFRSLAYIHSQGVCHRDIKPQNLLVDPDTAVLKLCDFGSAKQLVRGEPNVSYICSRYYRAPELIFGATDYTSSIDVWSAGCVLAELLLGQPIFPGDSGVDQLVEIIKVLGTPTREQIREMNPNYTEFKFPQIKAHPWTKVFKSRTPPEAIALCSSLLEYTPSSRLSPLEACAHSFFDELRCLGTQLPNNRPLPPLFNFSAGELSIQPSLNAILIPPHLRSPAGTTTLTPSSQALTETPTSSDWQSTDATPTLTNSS
T4 sequence (Q16539 whole entry, canonical isoform): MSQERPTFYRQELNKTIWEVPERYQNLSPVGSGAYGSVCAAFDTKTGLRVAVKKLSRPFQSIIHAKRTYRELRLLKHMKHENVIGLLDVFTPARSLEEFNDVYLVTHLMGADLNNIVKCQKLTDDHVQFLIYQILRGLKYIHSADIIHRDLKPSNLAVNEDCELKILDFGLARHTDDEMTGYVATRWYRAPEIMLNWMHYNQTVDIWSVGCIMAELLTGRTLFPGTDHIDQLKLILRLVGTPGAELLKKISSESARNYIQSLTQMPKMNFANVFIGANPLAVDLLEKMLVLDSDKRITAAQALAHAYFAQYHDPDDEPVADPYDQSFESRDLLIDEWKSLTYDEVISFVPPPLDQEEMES
T3 sequence (P12931 whole entry): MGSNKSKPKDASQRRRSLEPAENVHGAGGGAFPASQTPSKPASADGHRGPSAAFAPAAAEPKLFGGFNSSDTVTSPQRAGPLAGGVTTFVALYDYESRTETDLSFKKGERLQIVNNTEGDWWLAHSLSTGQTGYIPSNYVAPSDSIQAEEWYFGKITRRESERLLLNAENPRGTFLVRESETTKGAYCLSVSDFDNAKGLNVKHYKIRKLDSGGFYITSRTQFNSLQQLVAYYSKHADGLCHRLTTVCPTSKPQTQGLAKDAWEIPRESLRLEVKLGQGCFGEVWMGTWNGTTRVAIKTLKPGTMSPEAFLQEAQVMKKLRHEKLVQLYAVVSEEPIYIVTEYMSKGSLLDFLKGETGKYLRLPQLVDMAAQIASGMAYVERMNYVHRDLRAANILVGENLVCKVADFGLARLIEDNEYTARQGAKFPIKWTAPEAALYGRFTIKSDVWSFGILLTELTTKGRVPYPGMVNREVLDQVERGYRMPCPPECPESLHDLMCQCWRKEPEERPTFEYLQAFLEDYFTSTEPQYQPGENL
T1 sequence (P08631 22-526): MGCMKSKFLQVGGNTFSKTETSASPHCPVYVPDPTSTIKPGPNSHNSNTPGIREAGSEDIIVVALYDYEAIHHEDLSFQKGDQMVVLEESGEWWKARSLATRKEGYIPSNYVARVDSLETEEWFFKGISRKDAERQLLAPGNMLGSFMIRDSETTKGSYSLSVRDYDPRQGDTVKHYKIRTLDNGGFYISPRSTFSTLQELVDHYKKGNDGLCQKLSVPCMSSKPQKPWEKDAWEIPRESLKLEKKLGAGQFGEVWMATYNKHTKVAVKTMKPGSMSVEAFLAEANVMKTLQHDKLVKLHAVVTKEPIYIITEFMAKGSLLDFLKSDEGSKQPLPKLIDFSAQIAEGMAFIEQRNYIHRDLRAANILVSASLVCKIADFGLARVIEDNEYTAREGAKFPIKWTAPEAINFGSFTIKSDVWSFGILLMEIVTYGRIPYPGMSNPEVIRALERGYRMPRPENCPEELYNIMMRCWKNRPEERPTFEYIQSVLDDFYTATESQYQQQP

One may read the inhibition as the relative decrease from the control value, in per cent. Consider `CCc1cncc(Nc2cc(COc3ccc(NC(=O)Nc4cc(C(C)(C)C)nn4-c4ccc(C)cc4)c4ccccc34)ccn2)n1` [Compound of the invention, 1-(3-(tert-butyl)-1-(p-tolyl)-1H-pyrazol-5-yl)-3-(4-((2-((6-ethylpyrazin-2-yl)amino)pyridin-4-yl)methoxy)naphthalen-1-yl)urea], for which the IC50 is 61.1 nM in assay [1]; 55 nM in assay [3]; more than 15100 nM in assay [4]; 199 nM in assay [5]; 26 nM in assay [7]. Moreover, the “inhibition of HRV-induced IL-8” value in assay [2] is recorded as “dose-dependent inhibition”. In assay [6], the inhibition at 5 µg/mL is 18 ± 7%.
